Where two headings read alike, the source gives them in different places.
Biological target: T1, PLK1 (Homo sapiens, UniProt P53350)
T1 construct: endogenous in cells; host or cells: HeLa
Test: PLK1 protein degradation in HeLa cells, Western blotting (PLK1/GAPDH ratio)
Format: cell-based
Conditions: 6 hours compound incubation; for DC50: measured only if the grade of Dmax is A or B; for Dmax: thymidine block and release, 10 points three-fold from 3 μM, PLK1 to GAPDH ratio
Description: The HeLa cell line was purchased from Korea Cell Line Bank (KCLB), Seoul, Korea. The passage in cell culture was maintained at P115 to P125.
For cell culture, DMEM (Gibco, Cat. No. 1195-65; Lot. No. 2085318), FBS (Gibco, Cat. No. 16000-044; Lot. No. 2097593), Penicillin/Streptomycin (PS) (Gibco, Cat. No. 15140-122; Lot. No. 2058855), 100 mm^2 cell culture dish (SPL, Cat. No. 20100), 150 mm^2 cell culture dish (SPL, Cat. No. 20150), 12-well culture plate (SPL, Cat. No. 30012), PBS pH 7.4 (Gibco, Cat. No. 10010-023; Lot. No. 2085080), TrypLE™ Express (Gibco, Cat. No. 12605-010; Lot No. 2070638), Counting Chamber (Hematocytometer) (Hirschmann, Cat. No. 8100204), and 0.4% Trypan Blue Solution (DYNEBIO, Cat. No. CBT3710; Lot. No. 20190723) were used.
2×10^5 cells were seeded for each well of a 12-well plate (SPL), and the cells were cultured in the culture medium in a total volume of 2 ml.
The compounds of Examples were completely dissolved in DMSO and used in the experiment, and thymidine was completely dissolved in DW and used in the experiment. For thymidine block, the products were treated with 2 mM of thymidine (Sigma-Aldrich Cat. No. T9250-5G) and then incubated for 24 hours.
For release and chemical treatment, the medium was suctioned and washed 3 times with 1×PBS. Complete media was added, followed by incubation for 4 hours in a CO2 incubator. Each compound was diluted three folds from the highest concentration of 3 μM to the lowest concentration in 10 points and then incubated for 6 hours again.
For SDS-PAGE and Western blotting, 1×RIPA lysis buffer (Rockland, Cat. No. MB-030-0050; Lot no. 39751), 100× Protease Inhibitor Cocktail (Quartett, Cat. No. PPI1015; Lot no. PCO50038424), Pierce™ BCA protein assay kit (ThermoScientific, Cat. No. 23225; Lot no. UC276876), albumin standard (ThermoScientific, Cat. No. 23209; Lot no. UB269561), 4-15% Mini-PROTEAN TGX stain-free gel (Bio-rad, Cat. No. 4568085; Lot no. L007041B), 10× Tris/Glycine/SDS buffer (Bio-rad, Cat. No. 1610732; Lot no. 10000044375B); 10×TBS (Bio-rad, Cat. No. 1706435; Lot no. 1000045140B), 10% Tween 20 (Cat. No. 1610781; Lot no. L004152B), Color protein standard broad range (NEB, Cat. No. P7719S; Lot no. 10040349), 4× Laemmli sample buffer (Bio-rad, Cat. No. 1610747; Lot no. L004133B), β-mercaptoethanol (Sigma-Aldrich, Cat. No. M3148; Lot no. 60-24-2), SuperBlock™ T20 (TBS) blocking buffer (ThermoScientific, Cat. No. 37536; Lot no. UC282578), 1M sodium azide solution (Sigma-Aldrich, Cat. No. 08591-1 mL-F; Lot no. BCBV4989), α-Rabbit pAb to Ms IgG (abcam, Cat. No. ab97046; Lot no. GR3252115-1), α-Goat pAb to Rb IgG (CST, Cat. No. 7074S; Lot no. 28), α-GAPDH (abcam, Cat. No. ab8245; Lot no. GR3275542-2), α-Plk1 (CST, Cat. No. 208G4), α-BRD4 (CST, Cat. No. 13440S), ECL™ Prime western blotting reagents (GE Healthcare, Cat. No. RPN2232; Lot no. 17001655), Ponceau S solution (Sigma-Aldrich, Cat. No. P7170; Lot no. SLBV4112), Difco™ Skim milk (BD, Cat. No. 232100; Lot no. 8346795), and iBlot® 2 NC Regular stacks (Invitrogen, Cat. No. IB323001; Lot no. 2NR110619-02) were used.
For cell harvesting, the cells were first separated from the plate using trypsin and then washed with the medium and PBS. Specifically, the medium was suctioned off and washed with 1 mL of PBS, and PBS was suctioned off. The cells were treated with 0.5 mL TrypLE™ Express at 37° C. for 7 minutes to separate the cells, and then 0.5 mL of complete medium was added to collect 1 mL of cell culture solution. Then, 1 mL of the cell collection solution was centrifuged at 8,000 rpm for 120 seconds, and the supernatant was removed. After washing with 0.2 mL of PBS, the PBS was removed.
For cell lysis, a lysis buffer was added and cell debris was removed to obtain a cell lysate. Specifically, the cells were treated with 70 μL of 1×RIPA buffer containing a protease inhibitor and incubated for 30 minutes on ice. Then, the cells were centrifuged at 4° C. and 15,000 rpm for 10 minutes to obtain a cell lysate. […]

T1 sequence (P53350 whole entry): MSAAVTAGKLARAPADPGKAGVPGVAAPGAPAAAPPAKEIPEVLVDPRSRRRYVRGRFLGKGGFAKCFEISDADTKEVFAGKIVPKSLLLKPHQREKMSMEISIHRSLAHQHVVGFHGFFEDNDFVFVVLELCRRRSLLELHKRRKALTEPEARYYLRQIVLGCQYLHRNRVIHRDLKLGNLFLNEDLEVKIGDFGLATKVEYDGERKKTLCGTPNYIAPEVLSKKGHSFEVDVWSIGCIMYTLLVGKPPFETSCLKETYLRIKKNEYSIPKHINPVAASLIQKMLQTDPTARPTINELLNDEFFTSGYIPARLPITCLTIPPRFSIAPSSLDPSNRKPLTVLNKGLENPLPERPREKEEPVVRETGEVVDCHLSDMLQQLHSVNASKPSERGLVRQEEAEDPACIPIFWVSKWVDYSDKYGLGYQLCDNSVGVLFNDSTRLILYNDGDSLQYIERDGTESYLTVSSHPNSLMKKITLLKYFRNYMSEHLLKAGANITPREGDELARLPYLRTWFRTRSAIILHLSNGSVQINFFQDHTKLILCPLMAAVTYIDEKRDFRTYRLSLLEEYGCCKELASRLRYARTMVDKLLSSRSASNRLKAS

Row | DC50 [nM] | Dmax (read-out: Dmax) [%] | SMILES | Dmax
1 | > 500 | 60 to 80 | COc1cc(C(=O)NC2CCN(CCCCCCCCCCCNc3cccc4c3C(=O)N(C3CCC(=O)NC3=O)C4=O)CC2)c(F)cc1Nc1ncc2c(n1)N(C1CCCC1)CC(F)(F)C(=O)N2C (stereo not drawn) [Compound 15, 4-((9-cyclopentyl-7,7-difluoro-5-methyl-6-oxo-5H,6H,7H,8H,9H-pyrimido[4,5-b][1,4]diazepin-2-yl)amino)-N-(1-(11-((2-(2,6-dioxopiperidin-3-yl)-1,3-dioxo-2,3-dihydro-1H-isoindol-4-yl)amino)undecyl)piperidin-4-yl)-2-fluoro-5-methoxybenzamide] | 
2 |  | < 60 | COc1cc(C(=O)NC2CCN(CCCCCCCCCCCCCNc3cccc4c3C(=O)N(C3CCC(=O)NC3=O)C4=O)CC2)c(F)cc1Nc1ncc2c(n1)N(C1CCCC1)CC(F)(F)C(=O)N2C (stereo not drawn) [Compound 16, 4-((9-cyclopentyl-7,7-difluoro-5-methyl-6-oxo-6,7,8,9-tetrahydro-5H-pyrimido[4,5-b][1,4]diazepin-2-yl)amino)-N-(1-(13-((2-(2,6-dioxopiperidin-3-yl)-1,3-dioxoisoindolin-4-yl)amino)tridecyl)piperidin-4-yl)-2-fluoro-5-methoxybenzamide] | 
3 |  | < 60 | COc1cc(C(=O)NC2CCN(CCCCCCCCCCCCCCNc3cccc4c3C(=O)N(C3CCC(=O)NC3=O)C4=O)CC2)c(F)cc1Nc1ncc2c(n1)N(C1CCCC1)CC(F)(F)C(=O)N2C (stereo not drawn) [Compound 17, 4-((9-cyclopentyl-7,7-difluoro-5-methyl-6-oxo-5H,6H,7H,8H,9H-pyrimido[4,5-b][1,4]diazepin-2-yl)amino)-N-(1-(14-((2-(2,6-dioxopiperidin-3-yl)-1,3-dioxo-2,3-dihydro-1H-isoindol-4-yl)amino)tetradecyl)piperidin-4-yl)-2-fluoro-5-methoxybenzamide] | 
4 | ≤ 500 | 60 to 80 | COc1cc(C(=O)NC2CCN(CCCOCCCNc3cccc4c3C(=O)N(C3CCC(=O)NC3=O)C4=O)CC2)c(F)cc1Nc1ncc2c(n1)N(C1CCCC1)CC(F)(F)C(=O)N2C (stereo not drawn) [Compound 18, 4-((9-cyclopentyl-7,7-difluoro-5-methyl-6-oxo-6,7,8,9-tetrahydro-5H-pyrimido[4,5-b][1,4]diazepin-2-yl)amino)-N-(1-(3-(3-((2-(2,6-dioxopiperidin-3-yl)-1,3-dioxoisoindolin-4-yl)amino)propoxy)propyl)piperidin-4-yl)-2-fluoro-5-methoxybenzamide] | 
5 | ≤ 500 | 60 to 80 | COc1cc(C(=O)NC2CCN(CCCCOCCCNc3cccc4c3C(=O)N(C3CCC(=O)NC3=O)C4=O)CC2)c(F)cc1Nc1ncc2c(n1)N(C1CCCC1)CC(F)(F)C(=O)N2C (stereo not drawn) [Compound 19, 4-((9-cyclopentyl-7,7-difluoro-5-methyl-6-oxo-6,7,8,9-tetrahydro-5H-pyrimido[4,5-b][1,4]diazepin-2-yl)amino)-N-(1-(4-(3-((2-(2,6-dioxopiperidin-3-yl)-1,3-dioxoisoindolin-4-yl)amino)propoxy)butyl)piperidin-4-yl)-2-fluoro-5-methoxybenzamide] | 
6 | ≤ 50 | ≥ 80 | COc1cc(C(=O)NC2CCN(CCOCCCOCCNc3cccc4c3C(=O)N(C3CCC(=O)NC3=O)C4=O)CC2)c(F)cc1Nc1ncc2c(n1)N(C1CCCC1)CC(F)(F)C(=O)N2C (stereo not drawn) [Compound 21, 4-((9-cyclopentyl-7,7-difluoro-5-methyl-6-oxo-6,7,8,9-tetrahydro-5H-pyrimido[4,5-b][1,4]diazepin-2-yl)amino)-N-(1-(2-(3-(2-((2-(2,6-dioxopiperidin-3-yl)-1,3-dioxoisoindolin-4-yl)amino)ethoxy)propoxy)ethyl)piperidin-4-yl)-2-fluoro-5-methoxybenzamide] | 

The next lines start with the compound.

Row | SMILES | DC50 [nM] | Dmax (read-out: Dmax) [%] | Dmax
7 | COc1cc(C(=O)NC2CCN(CCCCCCCNc3cccc4c3C(=O)N(C3CCC(=O)NC3=O)C4=O)CC2)c(F)cc1Nc1ncc2c(n1)N(C1CCCC1)CC(F)(F)C(=O)N2C (stereo not drawn) [Compound 11, 4-((9-cyclopentyl-7,7-difluoro-5-methyl-6-oxo-6,7,8,9-tetrahydro-5H-pyrimido[4,5-b][1,4]diazepin-2-yl)amino)-N-(1-(7-((2-(2,6-dioxopiperidin-3-yl)-1,3-dioxoisoindolin-4-yl)amino)heptyl)piperidin-4-yl)-2-fluoro-5-methoxybenzamide] | ≤ 500 | 60 to 80 | 
8 | COc1cc(C(=O)NC2CCN(CCCCCCCCNc3cccc4c3C(=O)N(C3CCC(=O)NC3=O)C4=O)CC2)c(F)cc1Nc1ncc2c(n1)N(C1CCCC1)CC(F)(F)C(=O)N2C (stereo not drawn) [Compound 12, 4-((9-cyclopentyl-7,7-difluoro-5-methyl-6-oxo-6,7,8,9-tetrahydro-5H-pyrimido[4,5-b][1,4]diazepin-2-yl)amino)-N-(1-(8-((2-(2,6-dioxopiperidin-3-yl)-1,3-dioxoisoindolin-4-yl)amino)octyl)piperidin-4-yl)-2-fluoro-5-methoxybenzamide] | > 500 | 60 to 80 | 
9 | COc1cc(C(=O)NC2CCN(CCCCCCCCCNc3cccc4c3C(=O)N(C3CCC(=O)NC3=O)C4=O)CC2)c(F)cc1Nc1ncc2c(n1)N(C1CCCC1)CC(F)(F)C(=O)N2C (stereo not drawn) [Compound 13] | ≤ 500 |  | B (B: Dmax is 80% or less and 60% or more)
10 | COc1cc(C(=O)NC2CCN(CCCCCCCCCCNc3cccc4c3C(=O)N(C3CCC(=O)NC3=O)C4=O)CC2)c(F)cc1Nc1ncc2c(n1)N(C1CCCC1)CC(F)(F)C(=O)N2C (stereo not drawn) [Compound 14, 4-((9-cyclopentyl-7,7-difluoro-5-methyl-6-oxo-6,7,8,9-tetrahydro-5H-pyrimido[4,5-b][1,4]diazepin-2-yl)amino)-N-(1-(10-((2-(2,6-dioxopiperidin-3-yl)-1,3-dioxoisoindolin-4-yl)amino)decyl)piperidin-4-yl)-2-fluoro-5-methoxybenzamide] |  | < 60 | 
11 | COc1cc(C(=O)NC2CCN(CCCOCCCCNc3cccc4c3C(=O)N(C3CCC(=O)NC3=O)C4=O)CC2)c(F)cc1Nc1ncc2c(n1)N(C1CCCC1)CC(F)(F)C(=O)N2C (stereo not drawn) [Compound 20, 4-((9-cyclopentyl-7,7-difluoro-5-methyl-6-oxo-6,7,8,9-tetrahydro-5H-pyrimido[4,5-b][1,4]diazepin-2-yl)amino)-N-(1-(3-(4-((2-(2,6-dioxopiperidin-3-yl)-1,3-dioxoisoindolin-4-yl)amino)butoxy)propyl)piperidin-4-yl)-2-fluoro-5-methoxybenzamide] |  | < 60 | 
